Data on 15 molecules can be found in publication PMC4355058 (Analytical biochemistry, 2014).

One may read the Kd as the free concentration of one partner at which half of the binding sites on the other are occupied at equilibrium, for simple one-to-one binding.

Where a name gives a salt, the structure may show the parent alone. Read-outs that look alike come from different tables or passages of the source.

One assay addresses A2a-8M receptor (Homo sapiens, UniProt P29274, A54L/K122A/L202A/L235A/N154A/R107A/S277A/T88A/V239A). The assay is described as follows: Isothermal chemical denaturation.
A further assay relates to WT A2a receptor. The note with it: cited from earlier work.
Assay [1] addresses A2a-8M (Homo sapiens, UniProt P29274, A54L/K122A/L202A/L235A/R107A/S277A/T88A/V239A). As to the kind of experiment: SPR analysis of small molecule binding. In general terms: Surface plasmon resonance follows binding to a sensor surface in real time, without labels.
The target in a further assay is A2aR. The note with it: read-out: Kd, SPR study at 10°C; cited from earlier work.
Assay [2] concerns the target A2a-8M. The assay is described as follows: SPR analysis of small molecule binding. The note with it: read-out: SPR Kd.
[3] abbreviates: [L] = 21 μM, 25°C, 338 nm, apo 1.37.
[4] abbreviates: [L] = 21 μM, 25°C, 338 nm, apo 2.90.
Where [5] appears, read: [L] = 21 μM, 25°C, protein […], 338 nm, apo 3.96.
Setting [6] is: [L] = 2 μM, 25°C, 338 nm (SCH58261 at 316 nm), apo 2.90 (338 nm), 2.88 (316 nm).
Setting [7] is: [L] = 2 μM, 25°C, 338 nm (SCH58261 at 316 nm), apo 1.37.

Sequence of A2a-8M receptor (P29274 1-316 A54L/T88A/R107A/K122A/N154A/L202A/L235A/V239A/S277A): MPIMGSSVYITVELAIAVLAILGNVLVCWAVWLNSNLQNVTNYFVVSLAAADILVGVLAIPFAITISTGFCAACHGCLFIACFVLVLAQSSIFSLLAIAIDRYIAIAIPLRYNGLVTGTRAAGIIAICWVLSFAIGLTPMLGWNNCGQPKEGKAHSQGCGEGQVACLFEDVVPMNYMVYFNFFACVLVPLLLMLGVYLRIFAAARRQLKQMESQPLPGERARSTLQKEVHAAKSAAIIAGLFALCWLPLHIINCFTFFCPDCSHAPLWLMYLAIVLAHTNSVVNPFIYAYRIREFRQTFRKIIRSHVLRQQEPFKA
Sequence of A2a-8M (Homo sapiens, UniProt P29274, A54L/K122A/L202A/L235A/R107A/S277A/T88A/V239A) (P29274 1-317 A54L/T88A/R107A/K122A/L202A/L235A/V239A/S277A): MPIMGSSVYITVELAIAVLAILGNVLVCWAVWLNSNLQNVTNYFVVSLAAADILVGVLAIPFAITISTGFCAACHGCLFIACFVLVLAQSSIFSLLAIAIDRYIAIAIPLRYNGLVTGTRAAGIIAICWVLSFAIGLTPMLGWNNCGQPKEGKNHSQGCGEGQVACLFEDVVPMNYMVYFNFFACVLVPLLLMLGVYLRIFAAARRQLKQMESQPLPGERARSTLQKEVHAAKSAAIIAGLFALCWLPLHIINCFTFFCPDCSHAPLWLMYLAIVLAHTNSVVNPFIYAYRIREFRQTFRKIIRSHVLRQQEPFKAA

`CCOc1nc2c(N)ncnc2n1CC` [ANR94] yielded a m at A2a-8M receptor (setting [3]) of 1.65 kcal/mol×M. The “C½ (midpoint of denaturation curve)” value on A2a-8M receptor (setting [4]) was determined as 3.53 M GuHCl. Also, the “ΔG (Gibbs energy of protein stability in presence of ligand)” value at A2a-8M receptor (setting [5]) is on record as 5.82 kcal/mol.
For `CCNC(=O)[C@H]1O[C@@H](n2cnc3c(N)nc(NCCc4ccc(CCC(=O)O)cc4)nc32)[C@H](O)[C@@H]1O` [CGS21680], the binding affinity in the assay with WT A2a receptor was greater than 10 µM.
With `Cn1c(=O)c2c(ncn2C)n(C)c1=O` [Caffeine], the “C½ (midpoint of denaturation curve)” value on A2a-8M receptor (setting [6]) is reported as 3.28 M GuHCl.
Turning to `N=C(N)NC(=O)Cc1c(Cl)cccc1Cl` [Guanfacine HCl], the m on A2a-8M receptor (setting [3]) came to 1.37 kcal/mol×M. The “C½ (midpoint of denaturation curve)” value on A2a-8M receptor (setting [4]) is 2.25 M GuHCl. Besides, the “ΔG (Gibbs energy of protein stability in presence of ligand)” value on A2a-8M receptor (setting [5]) was determined as 3.08 kcal/mol.
Taken in the same sequence, the figures for `CCCCC#Cc1nc(NC)c2ncn([C@@H]3O[C@H](CO)[C@@H](O)[C@H]3O)c2n1` [Hemado] were 1.77 kcal/mol×M, 2.59 M GuHCl and 4.59 kcal/mol.
At A2a-8M receptor (setting [7]), `N#Cc1c(N)nc(SCc2ncc[nH]2)c(C#N)c1-c1ccc(O)cc1` [LUF5834] displayed a m of 1.90 kcal/mol×M. For the same molecule, on A2a-8M receptor (setting [6]), the “C½ (midpoint of denaturation curve)” value turned out to be 3.18 M GuHCl.
In the case of `CCO/C(O)=C1\C(C)=NC(c2ccccc2)=C(C(=O)OCc2ccc([N+](=O)[O-])cc2)C1C#Cc1ccccc1` (stereo not shown) [MRS1334], the Kd at A2a-8M [1] was found to be 5.9 µM; at A2a-8M receptor, 5.5 µM. On A2a-8M receptor (setting [7]), this molecule showed a m of 1.30 kcal/mol×M. In addition, the “C½ (midpoint of denaturation curve)” value on A2a-8M receptor (setting [6]) amounted to 3.20 M GuHCl.
Turning to `Nc1nc(SCCc2ccc(S(=O)(=O)O)cc2)nc2c1ncn2[C@@H]1O[C@H](CO)[C@@H](O)[C@H]1O` [PSB0777], the m on A2a-8M receptor (setting [3]) turned out to be 1.56 kcal/mol×M. For the same molecule, the “C½ (midpoint of denaturation curve)” value at A2a-8M receptor (setting [4]) is recorded as 2.22 M GuHCl. In addition, the “ΔG (Gibbs energy of protein stability in presence of ligand)” value at A2a-8M receptor (setting [5]) is recorded as 3.47 kcal/mol.
With `CCCn1c(=O)[nH]c2nc(-c3ccc(S(=O)(=O)O)cc3)[nH]c2c1=O` [PSB1115], on A2aR, the Kd was 0.158 µM. For the same molecule, the m on A2a-8M receptor (setting [7]) turned out to be 1.63 kcal/mol×M. Besides, on A2a-8M receptor (setting [6]), the “C½ (midpoint of denaturation curve)” value turned out to be 3.82 M GuHCl.
As to `Nc1nc2c(cnn2CCc2ccccc2)c2nc(-c3ccco3)nn12` [SCH58261], the Kd on A2a-8M [2] was 0.014 µM. Also, on A2a-8M receptor, the “C½ (midpoint of denaturation curve)” value worked out at 3.91 M GuHCl, the m was determined as 1.80 kcal/mol×M and the “ΔG (Gibbs energy of protein stability in presence of ligand)” value is reported as 7.01 kcal/mol.
Turning to `COc1ccc(CCCn2ncc3c2nc(N)n2nc(-c4ccco4)nc32)cc1` [SCH442416], the binding affinity in the assay with WT A2a receptor is on record as 50 pm.
Molecule `CN1CCc2cccc(Cl)c2CC1.Cl` [SKF86466 HCl] showed a m on A2a-8M receptor (setting [3]) of 1.55 kcal/mol×M. The “C½ (midpoint of denaturation curve)” value at A2a-8M receptor (setting [4]) worked out at 2.18 M GuHCl. The “ΔG (Gibbs energy of protein stability in presence of ligand)” value on A2a-8M receptor (setting [5]) was found to be 3.38 kcal/mol.
Take `COC1CCN(c2cccc(-c3cc(NC(C)=O)nc(-n4nc(C)cc4C)n3)n2)CC1` [TC-G1004]: the m on A2a-8M receptor ([L] = 0.4 μM, 25°C, 338 nm (SCH442416 at 316 nm), apo 1.37) is on record as 1.42 kcal/mol×M.
Molecule `c1ccc(NCc2ccc(CNc3ccccn3)cc2)nc1` [WZ811] showed a m on A2a-8M receptor (setting [7]) of 1.19 kcal/mol×M. Moreover, the “C½ (midpoint of denaturation curve)” value at A2a-8M receptor (setting [6]) is 2.98 M GuHCl.
With `Cl.Cl.OCCOCCN1CCN(Cc2cccc(Oc3ccccc3)c2)CC1` [ZK756326], on A2a-8M receptor (setting [3]), the m turned out to be 1.50 kcal/mol×M. For the same molecule, at A2a-8M receptor (setting [4]), the “C½ (midpoint of denaturation curve)” value is given as 3.41 M GuHCl. In addition, on A2a-8M receptor (setting [5]), the “ΔG (Gibbs energy of protein stability in presence of ligand)” value was found to be 5.11 kcal/mol.
